Here are results for seven compounds from article PMC6099682, “(-)-Shikimic Acid as a Chiral Building Block for the Synthesis of New Cytotoxic 6-Aza-Analogues of Angucyclinones” (Molecules : A Journal of Synthetic Chemistry and Natural …, 2018).

Read-outs that look alike come from different tables or passages of the source.

In data set [1] the test system is HT-29 (colon cancer). Description: Sulforhodamine B cytotoxicity assay, HT-29. It counts as cell-based. The conditions noted are these: for IC50: 72 h continuous exposure, SRB assay, mean ± SD; for Selectivity index (SI), ratio of IC50 in CoN in cancer cells, HT-29: CCD841-CoN IC50 / HT-29 IC50. How it is done:
(§1) To analyse the scope of the shikimic-fragment incorporated in the angucycline scaffold on the cytotoxic activity of these compounds, we included five previously obtained compounds (Figure 2, [32]). Therefore, the cytotoxicity of the new nine synthesised compounds, and of the five aforementioned compounds, was evaluated in vitro against different cancer cell lines: PC-3 (prostate cancer), HT-29 (colon cancer), MCF-7 (breast cancer), and one non-tumoral cell line, human colon epithelial cells (CCD841 CoN). A conventional colorimetric assay was set up to estimate the IC50 values, which represent the concentration of a drug that is required for 50% inhibition in vitro after 72 h of continuous exposure to the test compounds. Several serial dilutions (from 1.25 to 100 µM) for each sample were evaluated in triplicate.
(§2) The experimental cell lines were obtained from the American Type Culture Collection. HT-29 (colon cancer cell line), PC-3 (prostate cancer), MCF-7 (breast cancer), and CCD841 CoN (colon epithelial) were grown in DMEM-F12 containing 10% FCS, 100 U/mL penicillin, 100 µg/mL streptomycin, and 1 mM glutamine.
(§3) The in vitro cytotoxic activities of all the compounds were evaluated on cell lines previously mentioned by the sulforhodamine B assay, according to [42]. Briefly, cells were seeded at a plating density of 5 × 10^3 cells/well into 96 well plates. Cells were incubated at 37 °C for 24 h to allow cell attachment. The test compounds at indicated final concentrations were added to the culture medium and the cell cultures were continued for 72 h under the same conditions. Stock solutions of compounds were prepared in DMSO. Control cultures received 0.1% DMSO alone. At the end of the treatment, cells were fixed with trichloroacetic acid (50% w/v) at 4 °C and, subsequently, washed with water. Cells were stained with 0.1% sulforhodamine B in 1% acetic acid for 30 min. Posteriorly, the cells were washed acetic acid (1%) to remove unbound sulforhodamine B. Protein-bound stain was solubilized with 10 mM unbuffered Tris base). The optical density was determined using a […] plate reader (540 nm). The obtained values are transformed to percentages of viable cells versus control treatment and the IC50 values calculated for each compound in the cell lines were studied using the SigmaPlot 12.0 software (Systat Software, San Jose, CA, USA). Values shown are the mean ± SD of the three independent experiments in triplicate.
For orientation: Sulforhodamine B stains cellular protein and so reports cell mass.

Data set [2] deals with MCF-7 (breast cancer). Kind of data set: Sulforhodamine B cytotoxicity assay, MCF-7. The class given is cell-based. The following applies: for Selectivity index (SI), ratio of IC50 in CoN in cancer cells, MCF-7: CCD841-CoN IC50 / MCF-7 IC50; for IC50: Homo sapiens, MCF7, 72 h continuous exposure, SRB assay. How it is done: as §1, §2, §3
For data set [3], the system named is human colon epithelial cells (CCD841 CoN). Kind of data set: Sulforhodamine B cytotoxicity assay, non-tumoral CCD841 CoN. It counts as cell-based. The following applies: CCD-841CoN, 72 h continuous exposure, SRB assay, mean ± SD. How it is done: as §1, §2, §3
In data set [4] the test system is PC-3 (prostate cancer). Description: Sulforhodamine B cytotoxicity assay, PC-3. The class given is cell-based. The following applies: for IC50: 72 h continuous exposure, SRB assay, mean ± SD; for Selectivity index (SI), ratio of IC50 in CoN in cancer cells, PC-3: CCD841-CoN IC50 / PC-3 IC50. How it is done:
as §1, §2, §3

[5] abbreviates: mean ± SD, read-out: IC50 Values MCF-7.

As a reminder, the IC50 is the concentration that inhibits the measured activity by half. Broadly, the melting point is the temperature of the solid-liquid transition.

As for `CN(C)N1C=C2C[C@@H](O[Si](C)(C)C(C)(C)C)[C@@H]3OC(C)(C)O[C@@H]3[C@H]2C2=C1C(=O)c1c(O)cccc1C2=O` [Compound 7a], the IC50 is 0.2 ± 0.05 µM in data set [1]; less than 0.4 µM in data set [1] (Homo sapiens, HT-29, 72 h); 16 ± 1 µM in data set [2] (setting [5]); 2.3 ± 0.3 µM in data set [3]; less than 1 µM in data set [4] (72 h); 0.7 ± 0.1 µM in data set [4]. Also, the “Selectivity index (SI), ratio of IC50 in CoN in cancer cells, HT-29” value (from here on “Selectivity index (SI), ratio of IC50 … HT-29”) in data set [1] came to 11.5. Moreover, in data set [2], the “Selectivity index (SI), ratio of IC50 in CoN in cancer cells, MCF-7” value (“Selectivity index (SI), ratio of IC50 … MCF-7” for short) amounted to 0.1. The “Selectivity index (SI), ratio of IC50 in CoN in cancer cells, PC-3” value (from here on “Selectivity index (SI), ratio of IC50 … PC-3”) in data set [4] was found to be 3.3.
Consider `CC(=O)Oc1cccc2c1C(=O)C1=C(C2=O)[C@H]2C(=CN1N(C)C)C[C@@H](O[Si](C)(C)C(C)(C)C)[C@@H]1OC(C)(C)O[C@H]21` [Compound 7b], for which the “Selectivity index (SI), ratio of IC50 … HT-29” value in data set [1] stood at 0.4. The IC50 in data set [1] (Homo sapiens, HT-29, 72 h) was determined as 2.1 ± 1.2 µM; in data set [2] (setting [5]) it was 12.1 ± 4 µM; in data set [3], 0.8 ± 0.1 µM; in data set [4] (72 h), 2.4 ± 0.9 µM. For the same compound, the “Selectivity index (SI), ratio of IC50 … MCF-7” value in data set [2] amounted to 0.1. Further, the “Selectivity index (SI), ratio of IC50 … PC-3” value in data set [4] turned out to be 0.3.
For `CC1(C)O[C@@H]2[C@@H]3C(=CNC4=C3C(=O)c3ccccc3C4=O)C[C@@H](O[Si](C)(C)C(C)(C)C)[C@@H]2O1` [Compound 8], the “Selectivity index (SI), ratio of IC50 … HT-29” value in data set [1] is on record as 1.8. The IC50 was 7.8 ± 0.9 µM in data set [1] (Homo sapiens, HT-29, 72 h); 4.2 ± 4.2 µM in data set [2] (setting [5]); 13.8 ± 1 µM in data set [3]; 5.7 ± 1.3 µM in data set [4] (72 h). In addition, the “Selectivity index (SI), ratio of IC50 … MCF-7” value in data set [2] is given as 3.3. Also, the “Selectivity index (SI), ratio of IC50 … PC-3” value in data set [4] is given as 2.4.
Consider `CC1(C)O[C@@H]2[C@H](O1)c1c(cnc3c1C(=O)c1ccccc1C3=O)C[C@H]2O[Si](C)(C)C(C)(C)C` [Compound 9a], for which, in data set [1], the “Selectivity index (SI), ratio of IC50 … HT-29” value was 0.8. For the same compound, the IC50 was found to be 3.7 ± 0.8 µM in data set [1] (Homo sapiens, HT-29, 72 h); 17.8 ± 3 µM in data set [2] (setting [5]); 2.8 ± 0.4 µM in data set [3]; 7.6 ± 1.2 µM in data set [4] (72 h). Moreover, the “Selectivity index (SI), ratio of IC50 … MCF-7” value in data set [2] amounted to 0.2. The “Selectivity index (SI), ratio of IC50 … PC-3” value in data set [4] was determined as 0.4.
Take `CC1(C)O[C@@H]2[C@H](O1)c1c(cnc3c1C(=O)c1c(O)ccc(O)c1C3=O)C[C@H]2O[Si](C)(C)C(C)(C)C` [Compound 9b]: the “Selectivity index (SI), ratio of IC50 … HT-29” value in data set [1] is on record as 1.1. Moreover, the IC50 in data set [1] (Homo sapiens, HT-29, 72 h) came out at 15 ± 4.2 µM; in data set [2] (setting [5]), 28.3 ± 4 µM; in data set [3], 15.6 ± 2.1 µM; in data set [4] (72 h) it was 13.1 ± 2 µM. Further, in data set [2], the “Selectivity index (SI), ratio of IC50 … MCF-7” value came out at 0.6. Besides, the “Selectivity index (SI), ratio of IC50 … PC-3” value in data set [4] worked out at 1.2.
For `CO[C@H]1C=Cc2cnc3c(c2[C@@H]1OC)C(=O)c1cccnc1C3=O` [Compound 19a, (1S,2S)-1,2-Dimethoxy-1,2-dihydropyrido[3,2-b]phenanthridine-7,12-dione], the melting point is 78.8 °C. In addition, the “Selectivity index (SI), ratio of IC50 … MCF-7” value in data set [2] was determined as 4.0. Besides, in data set [2] (setting [5]), the IC50 was 0.01 ± 0.005 µM. In data set [2] (read-out: IC50 value MCF-7), the IC50 is approximately 0.01 µM. The compound also gave an IC50 in data set [3] of 0.04 ± 0.01 µM. Further, the “Selectivity index (SI), ratio of IC50 … PC-3” value in data set [4] came out at 0.5.
As to `COc1cccc2cnc3c(c12)C(=O)c1ccccc1C3=O` [Compound 20, 1-Methoxybenzo[b]phenanthridine-7,12-dione], the IC50 in data set [1] is 3.7 ± 1.2 µM; in data set [1] (Homo sapiens, HT-29, 72 h) it was approximately 3 µM; in data set [2] (setting [5]), 14 ± 1.7 µM; in data set [3], 23.6 ± 3.4 µM; in data set [4] (72 h) it was 7.8 ± 1 µM. Moreover, the “Selectivity index (SI), ratio of IC50 … HT-29” value in data set [1] was found to be 6.4. Further, the “Selectivity index (SI), ratio of IC50 … MCF-7” value in data set [2] is given as 1.7. Moreover, the “Selectivity index (SI), ratio of IC50 … PC-3” value in data set [4] was found to be 3.0.
